Data published in patent US9040713B2, “Methods of managing blood sugar levels and compositions related thereto” (EMORY UNIVERSITY, priority 2010, dated 2015).
Values joined by “and” are separate entries in the source; they are usually repeats but may differ in a detail not shown here. Identical values can stand only once.

How the values were obtained:
Type in all cases: cell-based
EGFR = EGFR phosphorylation in cells (immunoblotting)
Experimental: (§1) (A) DDN and CSN activate IR and its downstream signaling in CHO-IR cells. […] The cell lysates were analyzed by immunoblotting with anti-phospho-IR antibodies, or immunoprecipitated by PY20 and analyzed using anti-IR and anti-IRS-1, respectively. (B) DDN and CSN induce IR phosphorylation in a dose-dependent manner. CHO-IR cells were treated with the small compounds at different concentrations for 15 min, and the IR phosphorylation was monitored by immunoprecipitation and immunoblotting. (C) DDN, CSN induce IR phosphorylation in a time-dependent manner. […] (D) DDN and CSN induce IR phosphorylation and its downstream signaling in a dose-dependent manner. […] (E) DDN and CSN cannot induce IGF-1R or EGFR phosphorylation. CHO-IGF-1R or HEK293 cells were treated with EGF (100 nM), IGF-1 (100 nM), DDN (10 μM) or CSN (10 μM) for 15 min. The cell lysates were analyzed by immunoblotting with anti-pIGF-1R and anti-pEGFR.
(§2) (A) Chemical structure of 4524-E7. (B) Effect of 4524-E7 and other 1,4-naphthoquinone derivatives on IR phosphorylation in CHO-IR cells. CHO-IR cells were cultured in 96-well plates and treated with 5 μM compounds for 15 min at 37 C. Cells were lysed, and IR phosphorylations were tested by ELISA. The IR phosphorylation activities of the tested compounds were expressed as a percentage of the vehicle. (C) 4524-E7 and 1,4-naphthoquinone derivates activate IR and its downstream signaling in CHO-IR cells. […] The cell lysates were analyzed by immunoblotting with various indicated antibodies. The phosphorylated IR was immunoprecipitated using PY20 and analyzed by immunoblotting with anti-IR13 antibody. […] The phosphorylation of each receptor was determined by Western blot using specific antibodies as indicated. (E) 4524-E7 activates IR through its ICD. Upper panel: Diagram of chimaeric receptors. Lower panel: His-tagged wild-type IR, IGFR-IR, IR-IGFR, and IR-EGFR constructs were transfected into CHO cells followed vehicle or 5 μM 4524-E7 treatment for 30 min. Then the cells were lysated and the transfected receptor fused to His tag were pulled down with Ni+ beads, followed by western blot against anti-p-Tyr and anti-His. The cell lysates were tested with anti-p-Akt and anti-Akt.
(§3) A cell-based ELISA assay was developed with an IR stably transfected Chinese Hamster Ovary (CHO-IR) cell line. The cells were seeded in a 96-well plate and treated with 10 μM (15 min) compounds. The cell lysates were subjected to the sandwich ELISA using immobilized anti-phosphotyrosine antibody and anti-IR antibody. […] Among the positive hits, 1,4-naphthoquinone compounds were identified that can selectively activate IR but not IGF-1R (FIG. 1A). […] Total IR tyrosine phosphorylation was further confirmed by immunoprecipitation using anti-phosphotyrosine (PY20) antibody (FIG. 2A, 3rd panel). […]

IGF-1R = IGF-1R phosphorylation in cells (immunoblotting)
Experimental: as §1, §2, §3

IR = IR (Homo sapiens, UniProt P06213); experiment: Immunoblotting of IR phosphorylation and downstream signaling in CHO-IR cells; set-up: expressed in transfected cells; host or cells: CHO (CHO-IR, gift from Dr. Nicholas Webster, UCSD)
IR, sequence (P06213 763-1382 limits assumed): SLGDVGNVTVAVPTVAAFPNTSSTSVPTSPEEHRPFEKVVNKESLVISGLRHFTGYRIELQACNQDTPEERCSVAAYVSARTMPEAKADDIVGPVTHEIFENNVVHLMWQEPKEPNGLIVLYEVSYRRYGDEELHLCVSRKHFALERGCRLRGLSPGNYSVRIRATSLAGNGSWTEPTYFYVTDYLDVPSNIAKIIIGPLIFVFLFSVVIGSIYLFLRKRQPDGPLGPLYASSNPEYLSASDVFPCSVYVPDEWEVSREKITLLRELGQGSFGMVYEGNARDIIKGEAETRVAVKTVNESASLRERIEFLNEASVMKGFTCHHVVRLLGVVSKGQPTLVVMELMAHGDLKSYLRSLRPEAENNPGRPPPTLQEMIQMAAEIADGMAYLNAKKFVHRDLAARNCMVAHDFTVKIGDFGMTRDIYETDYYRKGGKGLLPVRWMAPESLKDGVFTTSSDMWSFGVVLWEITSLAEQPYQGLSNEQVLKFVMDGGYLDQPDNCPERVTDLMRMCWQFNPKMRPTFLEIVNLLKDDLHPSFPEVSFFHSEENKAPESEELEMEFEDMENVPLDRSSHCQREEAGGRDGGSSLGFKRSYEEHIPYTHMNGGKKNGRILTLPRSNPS
IR, sequence (P06213 28-758 limits assumed): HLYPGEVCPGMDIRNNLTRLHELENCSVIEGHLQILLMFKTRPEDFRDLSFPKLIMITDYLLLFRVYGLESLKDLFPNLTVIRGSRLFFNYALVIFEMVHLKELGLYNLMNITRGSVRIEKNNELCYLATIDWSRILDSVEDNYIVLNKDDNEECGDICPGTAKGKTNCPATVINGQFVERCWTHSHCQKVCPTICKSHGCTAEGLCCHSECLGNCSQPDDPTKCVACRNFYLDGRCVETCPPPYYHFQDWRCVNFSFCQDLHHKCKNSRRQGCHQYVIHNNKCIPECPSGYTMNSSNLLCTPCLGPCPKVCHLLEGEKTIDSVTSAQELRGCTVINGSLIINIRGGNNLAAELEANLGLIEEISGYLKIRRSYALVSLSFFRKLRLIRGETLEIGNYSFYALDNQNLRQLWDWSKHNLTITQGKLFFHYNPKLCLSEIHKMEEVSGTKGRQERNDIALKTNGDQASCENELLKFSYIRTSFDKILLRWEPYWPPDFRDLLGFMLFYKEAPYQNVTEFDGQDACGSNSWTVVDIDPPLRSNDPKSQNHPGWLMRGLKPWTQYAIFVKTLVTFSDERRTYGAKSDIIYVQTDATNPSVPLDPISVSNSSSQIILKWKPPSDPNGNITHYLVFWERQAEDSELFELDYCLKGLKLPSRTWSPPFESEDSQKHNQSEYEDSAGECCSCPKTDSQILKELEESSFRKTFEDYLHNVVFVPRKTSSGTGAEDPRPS
Experimental: The cell lysates were analyzed by immunoblotting with anti-phospho-IR antibodies, or immunoprecipitated by PY20 and analyzed using anti-IR and anti-IRS-1, respectively. […] The cell lysates were analyzed by immunoblotting with anti-pIGF-1R and anti-pEGFR. […]
A cell-based ELISA assay was developed with an IR stably transfected Chinese Hamster Ovary (CHO-IR) cell line. […] The cell lysates were subjected to the sandwich ELISA using immobilized anti-phosphotyrosine antibody and anti-IR antibody.

[1] = differentiated 3T3-L1 adipocytes

concentration activating IR cascade strongly and specifically (IR)	IR tyrosine phosphorylation (IR; 5 μM, 30 min)	concentration at which Erk1/2 activation was detected (IR; 15 min)	concentration elevating Akt phosphorylation (IR; 15 min)	time at which IR phosphorylation starts (IR; 5 μM)	tyrosine phosphorylation of IRS-1 (IR; 5 μM, 15 min)	tyrosine phosphorylation of the IR β subunit in Y1146 and Y1158/1162/1163 (IR; 5 μM, 15 min)	concentration stimulating the IR signal cascades (IR; DDN or CSN 30 min, insulin 15 min)	Structure (SMILES)	EGFR activation (EGFR; EGFR-transfected HEK293 cells, 5 μM)	EGFR activation (EGFR; [1])	IGF-1R activation (IGF-1R; IGF-1R-transfected HEK293 cells, 5 μM)	IGF-1R activation (IGF-1R; [1])	tyrosine phosphorylation on the IR (IR; 5 μM, 15 min)	EGFR activation (EGFR; HEK293 cells, 10 μM, 15 min)	IGF-1R activation (IGF-1R; CHO-IGF-1R cells, 10 μM, 15 min)
1 to 2.5 µM	triggered IR tyrosine phosphorylation	≥ 5 µM	0.5 µM	–	–	–	–	O=C1c2ccccc2C(=O)C2SC(Nc3ccc(Cl)cc3)=NC12 (stereo not drawn) [4524-E7, 2-((4-chlorophenyl)amino)naphtho[2,3-d]thiazole-4,9(3aH,9aH)-dione]	not any other RTKs	neither IGF-1R nor EGFR was activated	not any other RTKs	neither IGF-1R nor EGFR was activated	increased the tyrosine phosphorylation on the IR	–	–
–	–	–	–	5 to 15 min and 5 min	also increased	strongly stimulated	5 µM	CC(=O)Oc1ccc(OC(C)=O)c2c1C(=O)C(Cl)=C(Cl)C2=O [DDN, 5,8-diacetyloxy-2,3-dichloro-1,4-naphthoquinone]	–	–	–	–	–	Neither IGF-1R nor EGFR was activated	Neither IGF-1R nor EGFR was activated
